Reference: patent publication US20250179059A1 (The Regents of the University of California, priority 2021, published 2025)
Counter-ions that a name gives are not always drawn.

These molecules were tested against T1, human BRD4 bromodomain II (Homo sapiens, UniProt O60885) (assay: Bromodomain binding assay (AlphaScreen), BRD4 BDII). Conditions: AlphaScreen assay, Table C2; read-out: BRD4 BDII IC50.
T1 construct: human BRD4 bromodomain II [based on Genbank NM_058243, residues 349-460]; host or cells: E. coli
Experimental: Bromodomain Binding Assay
The bromodomain binding assay utilizes AlphaScreen technology. Compounds compete with a biotinylated peptide ligand (from histone H4: aa 1-21, K5/K8/K12/K16Ac-biotin) for binding to a hexahistidine (His6)-tagged bromodomain. Peptide binding is detected by fluorescence signal after singlet oxygen energy transfer from peptide-bound AlphaScreen streptavidin-coated donor beads to His6-tagged bromodomain-bound nickel-chelate acceptor beads (PerkinElmer). Briefly, 8 μL 2.5× bromodomain (E. coli expressed, N-terminal His6-tagged human BRD4 bromodomain II [based on Genbank NM_058243, residues 349-460] or N-terminal His6-tagged human BRD4 bromodomain I [residues 44-170]) in reaction buffer (50 mM HEPES [pH 7.5], 100 mM NaCl, 0.05% CHAPS, 0.1% BSA, 1% DMSO) is added to wells of an assay plate (384-well low flange white, flat bottom, polystyrene microplate, Corning #3572; buffer only is added to some wells as a negative control). A compound concentration series (10 concentrations, 3-fold serial dilutions previously prepared in 100% DMSO, or 100% DMSO only negative control) is delivered to the assay plate with an Echo 550 acoustic liquid handler (Labcyte), followed by plate centrifugation and incubation for 30 minutes at room temperature. Then 4 μL 5× biotinylated peptide ligand is added, followed by plate centrifugation and gentle shaking for 30 minutes at room temperature to mix. After this incubation, 4 μL 5× donor beads are added, and the plate is centrifuged, followed by brief gentle shaking to mix. Finally, 4 μL 5× acceptor beads are added, and the plate is centrifuged, followed by gentle shaking for 60 minutes at room temperature in the dark. AlphaScreen signal (excitation/emission: 680 nm/520-620 nm) is detected with an EnSpire multimode plate reader (PerkinElmer). Percentage peptide binding is plotted as a function of concentration, and curve fitting is used to determine competitive compound binding ICsos.

Compound | IC50
CC(=O)Nc1c(F)cc(-c2cccc(-c3cc(N4CCNCC4)no3)c2O)cc1Cl [Example 126, N-(3-Chloro-5-fluoro-2′-hydroxy-3′-(3-(piperazin-1-yl)isoxazol-5-yl)-[1,1′-biphenyl]-4-yl)acetamide 2,2,2-trifluoroacetate] | 10 to 100 nM
CC(=O)Nc1ccc(-c2cccc(-c3ccc(NC(C)=O)c(C(C)C)c3)c2O)cc1F [Example 96, N,N′-(3-Fluoro-2′-hydroxy-3″-isopropyl-[1,1′:3′,1″-terphenyl]-4,4″diyl)diacetamide] | > 100 nM
CC(=O)Nc1ccc(-c2cccc(-c3cnn(-c4ccc(F)cc4)c3)c2O)cc1 [Example 16, N-(3′-(1-(4-Fluorophenyl)-1H-pyrazol-4-yl)-2′-hydroxy-[1,1′-biphenyl]-4-yl)acetamide] | > 100 nM
COc1cc(-c2cccc(-c3ccc(NC(C)=O)c(F)c3)c2O)ccc1F [Example 157, N-(3,4″-difluoro-2′-hydroxy-3″-methoxy-[1,1′:3′,1″-terphenyl]-4-yl)acetamide] | > 100 nM
CC(=O)Nc1ccc(-c2cccc(-c3cc(N4CCN(C)CC4)no3)c2O)cc1F [Example 150, N-(3-fluoro-2′-hydroxy-3′-(3-(4-methylpiperazin-1-yl)isoxazol-5-yl)-[1,1′-biphenyl]-4-yl)acetamide] | 10 to 100 nM
O=C1CCCN1c1ccc(-c2cc(F)cc(-c3ccnc(N4CCNCC4)c3)c2O)cc1F [Example 216, 1-(3,5′-Difluoro-2′-hydroxy-3′-(2-(piperazin-1-yl)pyridin-4-yl)-[1,1′-biphenyl]-4-yl)pyrrolidin-2-one] | 1 to 10 nM
CC(=O)Nc1ccc(-c2cccc(-c3ccc(NC(C)=O)cc3)c2O)cc1 [Example 11, N,N′-(2′-hydroxy-[1,1′:3′,1″-terphenyl]-4,4″-diyl)diacetamide] | > 100 nM
CC(=O)Nc1ccc(-c2cccc(-c3cc(N4CCNCC4)no3)c2O)cc1F [Example 34, N-(3-Fluoro-2′-hydroxy-3′-(3-(piperazin-1-yl)isoxazol-5-yl)-[1,1′-biphenyl]-4-yl)acetamide trifluoroacetate] | 10 to 100 nM
CC(=O)Nc1ccc(-c2cccc(-c3ccnc(C(N)=O)c3)c2O)cc1F [Example 211, 4-(4′-acetamido-3′-fluoro-2-hydroxy-[1,1′-biphenyl]-3-yl)picolinamide] | > 100 nM
CC(=O)Nc1ccc(-c2cccc(-c3cc(N4CCNCC4)no3)c2O)cc1Cl [Example 32, N-(3-Chloro-2′-hydroxy-3′-(3-(piperazin-1-yl)isoxazol-5-yl)-[1,1'-biphenyl]-4-yl)acetamide 2,2,2-trifluoroacetate] | 10 to 100 nM
O=C1CCCN1c1c(Cl)cc(-c2cccc(-c3cc(N4CCNCC4)no3)c2O)cc1Cl [Example 172, 1-(3,5-dichloro-2′-hydroxy-3′-(3-(piperazin-1-yl)isoxazol-5-yl)-[1,1′-biphenyl]-4-yl)pyrrolidin-2-one] | > 100 nM
CC(=O)Nc1ccc(-c2cccc(-c3cc(N4CCNCC4)no3)c2O)cc1Oc1ccccc1 [Example 68, N-(2′-Hydroxy-3-phenoxy-3′-(3-(piperazin-1-yl)isoxazol-5-yl)-[1,1′-biphenyl]-4-yl)acetamide 2,2,2-trifluoroacetate] | 10 to 100 nM
COC(=O)Nc1ccc(-c2cccc(-c3cc(N4CCNCC4)no3)c2O)cc1 [Example 141, Methyl (2′-hydroxy-3′-(3-(piperazin-1-yl)isoxazol-5-yl)-[1,1′-biphenyl]-4-yl)carbamate 2,2,2-trifluoroacetate] | > 100 nM
CC(=O)Nc1ccc(-c2cccc(-c3ccc(OC4CCCC4)cc3)c2O)cc1F [Example 118, N-(4″-(Cyclopentyloxy)-3-fluoro-2′-hydroxy-[1,1′:3′,1″-terphenyl]-4-yl)acetamide] | > 100 nM
CC(=O)N1CCc2cc(-c3cccc(-c4cc(N5CCNCC5)no4)c3O)ccc21 [Example 31, 1-(5-(2-Hydroxy-3-(3-(piperazin-1-yl)isoxazol-5-yl)phenyl)indolin-1-yl)ethanone 2,2,2-trifluoroacetate] | > 100 nM
COc1cc(-c2cccc(-c3ccc(NC(C)=O)c(F)c3)c2O)ccn1 [Example 97, N-(3-Fluoro-2′-hydroxy-3′-(2-methoxypyridin-4-yl)-[1,1′-biphenyl]-4-yl)acetamide] | > 100 nM
CC(=O)Nc1ccc(-c2cccc(-c3cccc(N4CCC5(CCNCC5)CC4)c3)c2O)cc1F [Example 195, N-(3-fluoro-2′-hydroxy-3″-(3.9-diazaspiro[5.5]undecan-3-yl)-[1,1′:3′,1″-terphenyl]-4-yl)acetamide] | 10 to 100 nM
CC(=O)Nc1ccc(-c2cccc(-c3ccnc(N4CC(N)C4)c3)c2O)cc1F [Example 232, N-(3′-(2-(3-aminoazetidin-1-yl)pyridin-4-yl)-3-fluoro-2′-hydroxy-[1,1′-biphenyl]-4-yl)acetamide] | 10 to 100 nM
CC(=O)Nc1ccc(-c2cccc(-c3ccc4c(ccn4C)c3)c2O)cc1F [Example 130, N-(3-Fluoro-2′-hydroxy-3′-(1-methyl-1H-indol-5-yl)-[1,1′-biphenyl]-4-yl)acetamide] | > 100 nM
CC(=O)Nc1ccc(-c2cccc(-c3cc(N4CCNCC4)no3)c2O)cc1OC1CC2(COC2)C1 [Example 28, N-(3-(2-Oxaspiro[3.3]heptan-6-yloxy)-2′-hydroxy-3′-(3-(piperazin-1-yl)isoxazol-5-yl)-[1,1′-biphenyl]-4-yl)acetamide 2,2,2-trifluoroacetate] | 10 to 100 nM
CC(=O)Nc1ccc(-c2cccc(-c3ccc(NC(C)=O)c(OC(C)C)c3)c2O)cc1F [Example 87, N,N′-(3-Fluoro-2′-hydroxy-3″-isopropoxy-[1,1′:3′,1″-terphenyl]-4,4″-diyl)diacetamide] | > 100 nM
CC(=O)Nc1ccc(-c2cccc(-c3cccc(C(C)C)c3)c2O)cc1F [Example 75, N-(3-Fluoro-2′-hydroxy-3″-isopropyl-[1,1′:3′,1″-terphenyl]-4-yl)acetamide] | > 100 nM
CCOc1cc(-c2cccc(-c3cc(N4CCNCC4)no3)c2O)ccc1NC(C)=O [Example 19, N-(3-Ethoxy-2′-hydroxy-3′-(3-(piperazin-1-yl)isoxazol-5-yl)-[1,1′-biphenyl]-4-yl)acetamide 2,2,2-trifluoroacetate] | > 100 nM
CC(=O)Nc1ccc(-c2cccc(-c3ccc4[nH]ccc4c3)c2O)cc1F [Example 123, N-(3-Fluoro-2′-hydroxy-3′-(1H-indol-5-yl)-[1,1′-biphenyl]-4-yl)acetamide] | > 100 nM
CC(=O)N1CCCc2cc(-c3cccc(-c4cc(N5CCNCC5)no4)c3O)ccc21 [Example 36, 1-(6-(2-Hydroxy-3-(3-(piperazin-1-yl)isoxazol-5-yl)phenyl)-3,4-dihydroquinolin-1(2H)-yl)ethanone 2,2,2-trifluoroacetate] | > 100 nM
CC(=O)Nc1ccc(-c2cccc(-c3cccc(C(F)(F)F)c3)c2O)cc1F [Example 78, N-(3-Fluoro-2′-hydroxy-3″-(trifluoromethyl)-[1,1′:3′,1″-terphenyl]-4-yl)acetamide] | > 100 nM
CCOC(=O)c1cccc(-c2cccc(-c3ccc(NC(C)=O)c(F)c3)c2O)c1 [Example 70, Ethyl 4″-acetamido-3″-fluoro-2′-hydroxy-[1,1′:3′,1″-terphenyl]-3-carboxylate] | > 100 nM
CC(=O)Nc1ccc(-c2cccc(-c3ccc(Cl)cc3)c2O)cc1F [Example 81, N-(4″-Chloro-3-fluoro-2′-hydroxy-[1,1′:3′,1″-terphenyl]-4-yl)acetamide] | > 100 nM
